The text below walks through data of patent US7727275B2, “Drug-delivery endovascular stent and method of forming the same” (Biosensors International Group, Ltd., priority 2002, dated 2010).

In this assay the test system is restenosis (neointimal formation) in severely injured coronary vessels. Nature of the assay: Swine restenosis model, "high injury" experiment: QCA and morphometric analysis 28 days after stent implant. The format is in vivo, out-bred juvenile swine. The source says:
The studies are summarized in Example 4.
Briefly, the studies compare the extent of restenosis at 28 days following stent implantation, in bare metal stents, polymer-coated stents, and polymer coated stents containing high or low concentrations of sirolimus (rapamycin) and everolimus.
It was reasoned that the most challenging treatment condition for the drug eluting stent is a severely injured vessel, as it is known that the degree of restenosis (neointimal formation) increases directly with extent of vessel injury. […]
Drug-eluting stents using a metal wire-mesh scaffold of a corrugated ring design (i.e. S-Stent) and polymer coating were implanted in out-bred juvenile swine (alternately Yucatan Minipigs for implant studies lasting longer than 28 days), using different dosings of either the drug everolimus or the drug sirolimus. At time of implant, Quantitative Coronary Angiography (QCA) was performed to measure the diameter of the vessels both before and after stent implantation. […]
A computerized imaging system Image Pro Plus 4.0 through an A.G. Heinze slide microscope for a PC-based system was used for histomorphometric measurements of: • 1. […] To quantify the degree of vascular injury, a score based on the amount and length of tear of the different wall structures was used. […]

On to `CO[C@H]1C[C@@H]2CC[C@@H](C)[C@@](O)(O2)C(=O)C(=O)N2CCCC[C@H]2C(=O)O[C@H]([C@H](C)C[C@@H]2CC[C@@H](OCCO)[C@H](OC)C2)CC(=O)[C@H](C)/C=C(\C)[C@@H](O)[C@@H](OC)C(=O)[C@H](C)C[C@H](C)/C=C/C=C/C=C/1C` [everolimus, 40-0-(2-hydroxyl)ethyl-rapamycin], for which the “extent of restenosis / neointima formation (in words)” value is “better than, or at least equivalent to the 180 microgram dosage of sirolimus”.
